{"source": "ChEMBL document CHEMBL4351032", "about": "“Design, synthesis, and biological evaluation of 4-((6,7-dimethoxyquinoline-4-yl)oxy)aniline derivatives as FLT3 inhibitors for the treatment of acute myeloid leukemia” (Bioorg Med Chem Lett, 2019)", "key": {"[1]": {"target": "T1, Receptor-type tyrosine-protein kinase FLT3 (Homo sapiens, UniProt P36888)", "T1 sequence (P36888 whole entry)": "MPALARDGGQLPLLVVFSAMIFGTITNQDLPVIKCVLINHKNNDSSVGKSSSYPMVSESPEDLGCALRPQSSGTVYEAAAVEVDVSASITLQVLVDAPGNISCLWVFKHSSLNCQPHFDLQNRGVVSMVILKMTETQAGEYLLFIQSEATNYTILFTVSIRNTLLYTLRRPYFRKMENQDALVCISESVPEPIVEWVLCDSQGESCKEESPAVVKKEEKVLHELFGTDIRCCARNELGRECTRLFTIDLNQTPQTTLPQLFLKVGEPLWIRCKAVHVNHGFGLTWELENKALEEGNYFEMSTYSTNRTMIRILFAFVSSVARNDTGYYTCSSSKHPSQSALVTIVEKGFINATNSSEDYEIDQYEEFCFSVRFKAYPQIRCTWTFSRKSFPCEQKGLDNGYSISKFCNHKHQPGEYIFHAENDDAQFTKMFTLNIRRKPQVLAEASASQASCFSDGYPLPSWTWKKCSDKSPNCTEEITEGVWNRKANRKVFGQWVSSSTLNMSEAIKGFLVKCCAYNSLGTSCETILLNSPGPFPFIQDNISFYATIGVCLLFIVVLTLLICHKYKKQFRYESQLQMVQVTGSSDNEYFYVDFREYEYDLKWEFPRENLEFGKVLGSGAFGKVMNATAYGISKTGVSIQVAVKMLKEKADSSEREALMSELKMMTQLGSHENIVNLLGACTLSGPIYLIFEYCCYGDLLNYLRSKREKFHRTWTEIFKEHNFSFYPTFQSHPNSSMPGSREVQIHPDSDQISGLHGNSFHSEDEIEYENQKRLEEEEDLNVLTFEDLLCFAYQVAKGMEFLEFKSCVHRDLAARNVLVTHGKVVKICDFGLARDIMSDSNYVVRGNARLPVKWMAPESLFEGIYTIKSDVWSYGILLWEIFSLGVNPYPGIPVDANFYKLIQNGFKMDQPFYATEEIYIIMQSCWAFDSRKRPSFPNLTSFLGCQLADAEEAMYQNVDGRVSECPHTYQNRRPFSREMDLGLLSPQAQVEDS", "experiment": "Inhibition of FLT3 (unknown origin)"}, "HL-60 [2]": {"tested_on": "HL-60", "experiment": "Antiproliferative activity against human HL60 cells harboring wild type FLT3 assessed as inhibition of cell growth incubated for 72 hrs by CCK-8 assay", "format": "functional, cell-based", "conditions": "HL-60, 72 h"}, "MV4-11": {"tested_on": "MV4-11", "experiment": "Antiproliferative activity against human MV4-11 cells harboring FLT3-ITD assessed as inhibition of cell growth incubated for 72 hrs by CCK-8 assay", "format": "functional, cell-based", "conditions": "MV4-11, 72 h"}, "[3]": {"target": "T1, Receptor-type tyrosine-protein kinase FLT3", "experiment": "Inhibition of FLT3 (unknown origin) using peptide as substrate preincubated with enzyme for 10 mins followed by substrate addition further incubated for 1 hr by mobility shift assay"}, "HL-60 [4]": {"tested_on": "HL-60", "experiment": "Potency index, ratio of cabozantinib IC50 to compound IC50 for human HL60 cells incubated for 72 hrs by CCK-8 assay", "format": "functional"}}, "note": "pIC50: −log10 of the molar value.", "data": [{"smiles": "COc1cc2c(Oc3ccc(NC(=O)c4nn(-c5ccccc5)c(=O)cc4C)cc3F)ccnc2cc1OCCCN1CCOCC1", "values": [{"measurement": "pIC50", "setting": "[1]", "result": 8.03}]}, {"smiles": "COc1cc2nccc(Oc3ccc(N/C(=N/c4ccc(F)cc4)C(F)(F)F)cc3)c2cc1OC", "values": [{"measurement": "pIC50", "setting": "HL-60 [2]", "result": 4.31}]}, {"smiles": "COc1ccc(/N=C(/Nc2ccc(Oc3ccnc4cc(OC)c(OC)cc34)cc2)C(F)(F)F)cc1", "values": [{"measurement": "pIC50", "setting": "HL-60 [2]", "result": 4.44}]}, {"smiles": "COc1cc2nccc(Oc3ccc(NC(=O)N/N=C/c4cn(-c5ccccc5Br)nn4)cc3)c2cc1OC", "values": [{"measurement": "pIC50", "setting": "MV4-11", "result": "< 4.30"}, {"measurement": "pIC50", "setting": "HL-60 [2]", "result": "< 4.30"}]}, {"smiles": "COc1cccc(-n2cc(/C=N/NC(=O)Nc3ccc(Oc4ccnc5cc(OC)c(OC)cc45)cc3)nn2)c1", "values": [{"measurement": "pIC50", "setting": "MV4-11", "result": 4.86}, {"measurement": "pIC50", "setting": "[3]", "result": "< 6.00"}, {"measurement": "pIC50", "setting": "HL-60 [2]", "result": 4.72}]}, {"smiles": "COc1cc2nccc(Oc3ccc(NC(=O)N/N=C/c4cn(-c5cccc(Cl)c5)nn4)cc3)c2cc1OC", "values": [{"measurement": "pIC50", "setting": "MV4-11", "result": 4.87}, {"measurement": "pIC50", "setting": "[3]", "result": "< 6.00"}, {"measurement": "pIC50", "setting": "HL-60 [2]", "result": 4.68}]}, {"smiles": "COc1cc2nccc(Oc3ccc(N/C(=N/c4ccc(C)cc4)C(F)(F)F)cc3)c2cc1OC", "values": [{"measurement": "pIC50", "setting": "HL-60 [2]", "result": 4.34}]}, {"smiles": "COc1cc2nccc(Oc3ccc(NC(=O)N/N=C/c4cn(-c5cccc(F)c5)nn4)cc3)c2cc1OC", "values": [{"measurement": "pIC50", "setting": "MV4-11", "result": 5.24}, {"measurement": "Ratio IC50", "setting": "HL-60 [4]", "result": 2.52}, {"measurement": "pIC50", "setting": "[3]", "result": 6.42}, {"measurement": "pIC50", "setting": "HL-60 [2]", "result": 5.05}]}, {"smiles": "COc1cc2nccc(Oc3ccc(N/C(=N/c4ccc(Cl)c(C(F)(F)F)c4)C(F)(F)F)cc3)c2cc1OC", "values": [{"measurement": "pIC50", "setting": "HL-60 [2]", "result": "< 4.30"}]}, {"smiles": "COc1cc2nccc(Oc3ccc(N/C(=N/c4ccc([N+](=O)[O-])cc4)C(F)(F)F)cc3)c2cc1OC", "values": [{"measurement": "pIC50", "setting": "HL-60 [2]", "result": "< 4.30"}]}, {"smiles": "COc1cc2nccc(Oc3ccc(N/C(=N/c4cccc(Cl)c4)C(F)(F)F)cc3)c2cc1OC", "values": [{"measurement": "pIC50", "setting": "HL-60 [2]", "result": "< 4.30"}]}, {"smiles": "COc1cc2nccc(Oc3ccc(N/C(=N/c4cccc(C(F)(F)F)c4)C(F)(F)F)cc3)c2cc1OC", "values": [{"measurement": "pIC50", "setting": "HL-60 [2]", "result": "< 4.30"}]}, {"smiles": "COc1cc2nccc(Oc3ccc(NC(=O)N/N=C/c4cn(-c5ccc(F)cc5)nn4)cc3)c2cc1OC", "values": [{"measurement": "pIC50", "setting": "MV4-11", "result": 4.67}, {"measurement": "pIC50", "setting": "HL-60 [2]", "result": 4.66}]}, {"smiles": "COc1cc2nccc(Oc3ccc(N/C(=N/c4ccc(Cl)c(Cl)c4)C(F)(F)F)cc3)c2cc1OC", "values": [{"measurement": "pIC50", "setting": "HL-60 [2]", "result": "< 4.30"}]}, {"smiles": "COc1cc2nccc(Oc3ccc(NC(=O)N/N=C/c4cn(-c5cccc(C(F)(F)F)c5)nn4)cc3)c2cc1OC", "values": [{"measurement": "pIC50", "setting": "MV4-11", "result": 4.31}, {"measurement": "pIC50", "setting": "HL-60 [2]", "result": "< 4.30"}]}, {"smiles": "COc1cc2nccc(Oc3ccc(NC(=O)N/N=C/c4cn(-c5ccccc5Cl)nn4)cc3)c2cc1OC", "values": [{"measurement": "pIC50", "setting": "MV4-11", "result": 4.31}, {"measurement": "pIC50", "setting": "HL-60 [2]", "result": "< 4.30"}]}, {"smiles": "COc1cc2nccc(Oc3ccc(NC(=O)N/N=C/c4cn(-c5cccc(C)c5)nn4)cc3)c2cc1OC", "values": [{"measurement": "pIC50", "setting": "MV4-11", "result": 4.71}, {"measurement": "pIC50", "setting": "HL-60 [2]", "result": 4.59}]}, {"smiles": "COc1cc2nccc(Oc3ccc(NC(=O)N/N=C/c4cn(-c5ccccc5F)nn4)cc3)c2cc1OC", "values": [{"measurement": "pIC50", "setting": "MV4-11", "result": 4.87}, {"measurement": "pIC50", "setting": "[3]", "result": "< 6.00"}, {"measurement": "pIC50", "setting": "HL-60 [2]", "result": 4.79}]}, {"smiles": "COc1cc2nccc(Oc3ccc(N/C(=N/c4ccc(OC(F)(F)F)cc4)C(F)(F)F)cc3)c2cc1OC", "values": [{"measurement": "pIC50", "setting": "HL-60 [2]", "result": 4.49}]}, {"smiles": "COc1cc2nccc(Oc3ccc(NC(=O)N/N=C/c4cn(-c5ccccc5OC)nn4)cc3)c2cc1OC", "values": [{"measurement": "pIC50", "setting": "MV4-11", "result": 5.08}, {"measurement": "pIC50", "setting": "[3]", "result": 6.51}, {"measurement": "pIC50", "setting": "HL-60 [2]", "result": 4.85}]}, {"smiles": "COc1cc2nccc(Oc3ccc(N/C(=N/c4ccccc4)C(F)(F)F)cc3)c2cc1OC", "values": [{"measurement": "pIC50", "setting": "HL-60 [2]", "result": 4.35}]}, {"smiles": "COc1ccc(-n2cc(/C=N/NC(=O)Nc3ccc(Oc4ccnc5cc(OC)c(OC)cc45)cc3)nn2)cc1", "values": [{"measurement": "pIC50", "setting": "MV4-11", "result": 4.79}, {"measurement": "pIC50", "setting": "HL-60 [2]", "result": 4.71}]}, {"smiles": "COc1cc2nccc(Oc3ccc(NC(=O)N/N=C/c4cn(-c5ccccc5)nn4)cc3)c2cc1OC", "values": [{"measurement": "pIC50", "setting": "MV4-11", "result": 4.41}, {"measurement": "pIC50", "setting": "HL-60 [2]", "result": 4.38}]}, {"smiles": "COc1cc2nccc(Oc3ccc(NC(=O)C4(C(=O)Nc5ccc(F)cc5)CC4)cc3)c2cc1OC", "note": "[CABOZANTINIB]", "values": [{"measurement": "pIC50", "setting": "MV4-11", "result": 4.82}, {"measurement": "pIC50", "setting": "HL-60 [2]", "result": 4.65}]}]}
